{"source": "patent US8546079B2", "about": "“Reporter gene construct, assay kit and detection method” (Kabushiki Kaisha Toshiba, priority 2010, dated 2013)", "system": "enhancer region of cytochrome 1A1 gene", "assay": "Detection of nitrogen monoxide (NO.) having responded to carcinogenicity by iNOS vector pXRE-SV40-NOS2 (DAF2-DA fluorescence)", "format": "cell-based, mouse", "details": "Neuro2a transfected with pXRE-SV40-NOS2; 1.0 μM, 24 hours; compared with DMSO; inverted fluorescence microscope (FIG. 3A, 3B)", "description": "An enhancer region responsive to a carcinogenic substance was incorporated in the iNOS vector: pSV40-NOS2. The enhancer region of cytochrome 1A1 gene responsive to a carcinogenic substance (benzopyrene) (SEQ ID NO: 4) was amplified by PCR from a mouse genome. The 5′ terminal of the amplified enhancer region was phosphorylated with T4 polynucleotide kinase, and ligated using T4 ligase to pSV40-NOS2 having been digested with restriction enzyme Sma I and having its 5′ terminal dephosphorylated with alkali phosphatase, thereby obtaining pXRE-SV40-NOS2 (FIG. 2). Using this vector, the correlation of the activation of the enhancer region by a carcinogenic substance with the amount of nitrogen monoxide (NO.) synthesized by iNOS was studied.\nMouse neuroblastoma Neuro2a (American Type Cell Culture) was seeded on a 24-well plate at a density of 8.0×10^4 cells/well, and using DMEM/F12 medium (DF1:1 medium) supplemented with 10% fetal calf serum (FCS), cultured overnight in a 5% CO2 atmosphere at 37° C. […] Two hours later, the cells were washed with phosphate buffer (PBS) twice, and the fluorescence by the reaction product of DAF-2DA and nitrogen monoxide (NO.) (DAF-2T, excitation wavelength: 495 nm, fluorescence wavelength: 515 nm) was observed by means of an inverted fluorescence microscope.", "data": [{"smiles": "c1ccc2c(c1)c1cccc3ccc4cccc2c4c31", "note": "[benzopyrene]", "values": [{"measurement": "fluorescence by the reaction product of DAF-2DA and nitrogen monoxide (NO.)", "value": "induction of fluorescence"}]}]}
